{
  "source": "paper PMC10761072",
  "about": "“Post-transcriptional capping generates coenzyme A-linked RNA” (RNA Biology, 2023)",
  "biological_target": "T1, phosphopantetheine adenylyltransferase (PPAT, CoaD) (Escherichia coli, UniProt P0A6I6)",
  "T1 construct": "recombinant full-length enzyme expressed from coaD plasmid and purified; hexamer",
  "T1 sequence (P0A6I6 whole entry)": "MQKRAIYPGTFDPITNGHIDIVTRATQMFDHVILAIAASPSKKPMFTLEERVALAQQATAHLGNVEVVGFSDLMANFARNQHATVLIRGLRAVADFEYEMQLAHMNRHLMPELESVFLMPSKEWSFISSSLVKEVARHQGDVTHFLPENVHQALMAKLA",
  "experiment": "capping of […]-labelled 5-mer pppRNA with pPant, denaturing PAGE",
  "assay_type": "biochemical",
  "conditions": "read-out: half-maximal inhibition",
  "data": [
    {"smiles": "Nc1ncnc2c1ncn2[C@@H]1O[C@H](COP(=O)(O)OP(=O)(O)OP(=O)(O)O)[C@@H](O)[C@H]1O", "note": "[ATP]", "values": [
      {"measurement": "IC50", "value": "~5", "unit": "µM"}
    ]}
  ]
}
